Measurements taken from PubChem BioAssay (NCI).
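Results reflect a 48-hour exposure of cells in 96-well plates to compound at five concentrations. At the GI50, growth is halved. TGI is the concentration that stops growth completely.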

Tests used:
Assay in all cases: NCI-60 cell line screen, 48 h
786-0 renal = test system: 786-0 renal
A498 renal = test system: A498 renal
A549 NSCLC = test system: A549 NSCLC
ACHN renal = test system: ACHN renal
BT-549 breast = test system: BT-549 breast
CAKI-1 renal = test system: CAKI-1 renal
CCRF-CEM leukemia = test system: CCRF-CEM leukemia
COLO 205 colon = test system: COLO 205 colon
DU-145 prostate = test system: DU-145 prostate
EKVX NSCLC = test system: EKVX NSCLC
HCC-2998 colon = test system: HCC-2998 colon
HCT-116 colon = test system: HCT-116 colon
HCT-15 colon = test system: HCT-15 colon
HL-60(TB) leukemia = test system: HL-60(TB) leukemia
HOP-62 NSCLC = test system: HOP-62 NSCLC
HOP-92 NSCLC = test system: HOP-92 NSCLC
HS 578T breast = test system: HS 578T breast
HT29 colon = test system: HT29 colon
IGROV1 ovarian = test system: IGROV1 ovarian
K-562 leukemia = test system: K-562 leukemia
KM12 colon = test system: KM12 colon
LOX IMVI melanoma = test system: LOX IMVI melanoma
M14 melanoma = test system: M14 melanoma
MALME-3M melanoma = test system: MALME-3M melanoma
MCF7 breast = test system: MCF7 breast
MDA-MB-231 breast = test system: MDA-MB-231 breast
MDA-MB-435 = test system: MDA-MB-435
MOLT-4 leukemia = test system: MOLT-4 leukemia
NCI-H226 lung = test system: NCI-H226 lung
NCI-H460 lung = test system: NCI-H460 lung
NCI-H522 lung = test system: NCI-H522 lung
NCI/ADR-RES ovarian = test system: NCI/ADR-RES ovarian
OVCAR-3 ovarian = test system: OVCAR-3 ovarian
OVCAR-4 ovarian = test system: OVCAR-4 ovarian
OVCAR-5 ovarian = test system: OVCAR-5 ovarian
OVCAR-8 ovarian = test system: OVCAR-8 ovarian
PC-3 prostate = test system: PC-3 prostate
RPMI-8226 leukemia = test system: RPMI-8226 leukemia
RXF 393 renal = test system: RXF 393 renal
SF-268 CNS = test system: SF-268 CNS
SF-295 CNS = test system: SF-295 CNS
SF-539 CNS = test system: SF-539 CNS
SK-MEL-2 melanoma = test system: SK-MEL-2 melanoma
SK-MEL-28 melanoma = test system: SK-MEL-28 melanoma
SK-MEL-5 melanoma = test system: SK-MEL-5 melanoma
SK-OV-3 ovarian = test system: SK-OV-3 ovarian
SN12C renal = test system: SN12C renal
SNB-19 CNS = test system: SNB-19 CNS
SNB-75 CNS = test system: SNB-75 CNS
SR leukemia = test system: SR leukemia
SW-620 colon = test system: SW-620 colon
T-47D breast = test system: T-47D breast
TK-10 renal = test system: TK-10 renal
U251 CNS = test system: U251 CNS
UACC-257 melanoma = test system: UACC-257 melanoma
UACC-62 melanoma = test system: UACC-62 melanoma
UO-31 renal = test system: UO-31 renal

For `C/C(=C(/c1ccc(O)cc1)c1ccc(OCCN2CCCC2)cc1)c1ccc(Cl)cc1`, which GI50 (786-0 renal) is on record?
The GI50 was 1.65 µM.

And the TGI (786-0 renal)?
The TGI was 3.16 µM.

What about the GI50 (A498 renal) of the same molecule?
The GI50 was 16.6 µM.

What about the TGI (A498 renal) of the same molecule?
Its TGI is 32.3 µM.

What about the GI50 (A549 NSCLC) of the same molecule?
Its GI50 is 7.58 µM.

What about the TGI (A549 NSCLC) of the same molecule?
Its TGI is 20.5 µM.

What about the GI50 (ACHN renal) of the same molecule?
The GI50 was 3.35 µM.

And the TGI (ACHN renal)?
Its TGI is 11.9 µM.

What about the GI50 (BT-549 breast) of the same molecule?
Its GI50 is 8.98 µM.

What about the TGI (BT-549 breast) of the same molecule?
The TGI was 21.1 µM.

What about the GI50 (CAKI-1 renal) of the same molecule?
Its GI50 is 2.07 µM.

What about the TGI (CAKI-1 renal) of the same molecule?
Its TGI is 6.39 µM.

What about the GI50 (CCRF-CEM leukemia) of the same molecule?
The GI50 was 2.41 µM.

What about the TGI (CCRF-CEM leukemia) of the same molecule?
Its TGI is 7.38 µM.

What about the GI50 (COLO 205 colon) of the same molecule?
The GI50 was 1.64 µM.

What about the TGI (COLO 205 colon) of the same molecule?
Its TGI is 3.14 µM.

And the GI50 (DU-145 prostate)?
Its GI50 is 4.54 µM.

What about the TGI (DU-145 prostate) of the same molecule?
The TGI was 15.7 µM.

What about the GI50 (EKVX NSCLC) of the same molecule?
The GI50 was 5.84 µM.

And the TGI (EKVX NSCLC)?
The TGI was 18.7 µM.

What about the GI50 (HCC-2998 colon) of the same molecule?
Its GI50 is 2.06 µM.

And the TGI (HCC-2998 colon)?
Its TGI is 4.21 µM.

What about the GI50 (HCT-116 colon) of the same molecule?
Its GI50 is 1.63 µM.

And the TGI (HCT-116 colon)?
The TGI was 3.21 µM.

What about the GI50 (HCT-15 colon) of the same molecule?
Its GI50 is 1.99 µM.

And the TGI (HCT-15 colon)?
The TGI was 4.62 µM.

And the GI50 (HL-60(TB) leukemia)?
The GI50 was 2.09 µM.

What about the TGI (HL-60(TB) leukemia) of the same molecule?
Its TGI is 4.11 µM.

What about the GI50 (HOP-62 NSCLC) of the same molecule?
The GI50 was 3.99 µM.

And the TGI (HOP-62 NSCLC)?
Its TGI is 15 µM.

And the GI50 (HOP-92 NSCLC)?
Its GI50 is 2.38 µM.

And the TGI (HOP-92 NSCLC)?
Its TGI is 9.63 µM.

And the GI50 (HS 578T breast)?
Its GI50 is 2.56 µM.

And the TGI (HS 578T breast)?
Its TGI is 8.36 µM.

And the GI50 (HT29 colon)?
Its GI50 is 1.73 µM.

What about the TGI (HT29 colon) of the same molecule?
The TGI was 3.41 µM.

And the GI50 (IGROV1 ovarian)?
The GI50 was 4.62 µM.

What about the TGI (IGROV1 ovarian) of the same molecule?
The TGI was 17.5 µM.

And the GI50 (K-562 leukemia)?
The GI50 was 1.64 µM.

What about the TGI (K-562 leukemia) of the same molecule?
The TGI was 3.94 µM.

And the GI50 (KM12 colon)?
The GI50 was 3.39 µM.

And the TGI (KM12 colon)?
Its TGI is 12.2 µM.

What about the GI50 (LOX IMVI melanoma) of the same molecule?
Its GI50 is 1.71 µM.

And the TGI (LOX IMVI melanoma)?
The TGI was 3.17 µM.

What about the GI50 (M14 melanoma) of the same molecule?
The GI50 was 1.69 µM.

And the TGI (M14 melanoma)?
The TGI was 3.23 µM.

What about the GI50 (MALME-3M melanoma) of the same molecule?
The GI50 was 1.64 µM.

What about the TGI (MALME-3M melanoma) of the same molecule?
Its TGI is 3.11 µM.

And the GI50 (MCF7 breast)?
Its GI50 is 0.0364 µM.

What about the TGI (MCF7 breast) of the same molecule?
The TGI was 3.26 µM.

What about the GI50 (MDA-MB-231 breast) of the same molecule?
Its GI50 is 3.52 µM.

And the TGI (MDA-MB-231 breast)?
The TGI was 13.1 µM.

What about the GI50 (MDA-MB-435) of the same molecule?
Its GI50 is 1.72 µM.

And the TGI (MDA-MB-435)?
The TGI was 3.21 µM.

And the GI50 (MOLT-4 leukemia)?
Its GI50 is 2.52 µM.

And the TGI (MOLT-4 leukemia)?
Its TGI is 6.02 µM.

What about the GI50 (NCI-H226 lung) of the same molecule?
The GI50 was 10.8 µM.

And the TGI (NCI-H226 lung)?
The TGI was 32.4 µM.

What about the GI50 (NCI-H460 lung) of the same molecule?
The GI50 was 1.8 µM.

What about the TGI (NCI-H460 lung) of the same molecule?
Its TGI is 3.33 µM.

And the GI50 (NCI-H522 lung)?
Its GI50 is 1.83 µM.

What about the TGI (NCI-H522 lung) of the same molecule?
Its TGI is 4.11 µM.

And the GI50 (NCI/ADR-RES ovarian)?
Its GI50 is 3.68 µM.

What about the TGI (NCI/ADR-RES ovarian) of the same molecule?
The TGI was 14.2 µM.

What about the GI50 (OVCAR-3 ovarian) of the same molecule?
The GI50 was 3.05 µM.

And the TGI (OVCAR-3 ovarian)?
Its TGI is 11.8 µM.

What about the GI50 (OVCAR-4 ovarian) of the same molecule?
Its GI50 is 4.78 µM.

And the TGI (OVCAR-4 ovarian)?
The TGI was 17.2 µM.

And the GI50 (OVCAR-5 ovarian)?
The GI50 was 6.26 µM.

And the TGI (OVCAR-5 ovarian)?
Its TGI is 18.8 µM.

And the GI50 (OVCAR-8 ovarian)?
Its GI50 is 2.82 µM.

And the TGI (OVCAR-8 ovarian)?
Its TGI is 8.04 µM.

What about the GI50 (PC-3 prostate) of the same molecule?
Its GI50 is 2.94 µM.

What about the TGI (PC-3 prostate) of the same molecule?
Its TGI is 10.8 µM.

What about the GI50 (RPMI-8226 leukemia) of the same molecule?
The GI50 was 2.24 µM.

What about the TGI (RPMI-8226 leukemia) of the same molecule?
The TGI was 5.52 µM.

What about the GI50 (RXF 393 renal) of the same molecule?
Its GI50 is 1.63 µM.

What about the TGI (RXF 393 renal) of the same molecule?
The TGI was 3.23 µM.

What about the GI50 (SF-268 CNS) of the same molecule?
Its GI50 is 4.78 µM.

And the TGI (SF-268 CNS)?
The TGI was 20 µM.

And the GI50 (SF-295 CNS)?
Its GI50 is 2.16 µM.

What about the TGI (SF-295 CNS) of the same molecule?
Its TGI is 4.77 µM.

What about the GI50 (SF-539 CNS) of the same molecule?
Its GI50 is 1.69 µM.

And the TGI (SF-539 CNS)?
Its TGI is 3.24 µM.

And the GI50 (SK-MEL-2 melanoma)?
Its GI50 is 7.37 µM.

What about the TGI (SK-MEL-2 melanoma) of the same molecule?
Its TGI is 20.5 µM.

What about the GI50 (SK-MEL-28 melanoma) of the same molecule?
Its GI50 is 1.75 µM.

And the TGI (SK-MEL-28 melanoma)?
Its TGI is 3.21 µM.

And the GI50 (SK-MEL-5 melanoma)?
The GI50 was 1.78 µM.

And the TGI (SK-MEL-5 melanoma)?
The TGI was 3.23 µM.

What about the GI50 (SK-OV-3 ovarian) of the same molecule?
Its GI50 is 9.59 µM.

What about the TGI (SK-OV-3 ovarian) of the same molecule?
The TGI was 21.5 µM.

And the GI50 (SN12C renal)?
Its GI50 is 5.21 µM.

And the TGI (SN12C renal)?
The TGI was 18.2 µM.

What about the GI50 (SNB-19 CNS) of the same molecule?
The GI50 was 3.85 µM.

And the TGI (SNB-19 CNS)?
Its TGI is 13.8 µM.

And the GI50 (SNB-75 CNS)?
Its GI50 is 3.06 µM.

And the TGI (SNB-75 CNS)?
The TGI was 16.6 µM.

What about the GI50 (SR leukemia) of the same molecule?
Its GI50 is 1.81 µM.

What about the TGI (SR leukemia) of the same molecule?
Its TGI is 4.71 µM.

And the GI50 (SW-620 colon)?
Its GI50 is 1.69 µM.

What about the TGI (SW-620 colon) of the same molecule?
The TGI was 3.24 µM.

And the GI50 (T-47D breast)?
Its GI50 is 1.54 µM.

And the TGI (T-47D breast)?
The TGI was 10.4 µM.

And the GI50 (TK-10 renal)?
The GI50 was 13.6 µM.

What about the TGI (TK-10 renal) of the same molecule?
The TGI was 27.3 µM.

What about the GI50 (U251 CNS) of the same molecule?
Its GI50 is 2.03 µM.

And the TGI (U251 CNS)?
The TGI was 4.59 µM.

What about the GI50 (UACC-257 melanoma) of the same molecule?
Its GI50 is 1.78 µM.

What about the TGI (UACC-257 melanoma) of the same molecule?
The TGI was 3.55 µM.

And the GI50 (UACC-62 melanoma)?
The GI50 was 2.04 µM.

And the TGI (UACC-62 melanoma)?
Its TGI is 4.57 µM.

And the GI50 (UO-31 renal)?
Its GI50 is 2.51 µM.

What about the TGI (UO-31 renal) of the same molecule?
Its TGI is 11.4 µM.
